For 37 compounds, IC50 results are on record in patent US20120094964A1, “SULFAMOYL BENZOIC ACID DERIVATIVES AS TRPM8 ANTAGONISTS” (priority 2009, published 2012).

The target of this experiment is T1, human TRPM8 (Homo sapiens, UniProt Q7Z2W7).
T1 construct: expressed in transfected cells
Put plainly: In Vitro human TRPM8 Functional Assay (intracellular Ca2+, Fluo4, FDSS, menthol activation). The following applies: HEK293 cells stably expressing human TRPM8; activation with L-(-)-Menthol; 11-point dose-response. The class given is cell-based. A digest of the protocol: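 Fluo4-loaded HEK293 cells stably expressing TRPM8 were preincubated with compound for 5 min at room temperature, then stimulated with L-menthol (20 μl of 90 μM stock) while fluorescence was read. IC50 values come from 11-point curves fitted to the mean of duplicate wells.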

T1 sequence (Q7Z2W7 whole entry): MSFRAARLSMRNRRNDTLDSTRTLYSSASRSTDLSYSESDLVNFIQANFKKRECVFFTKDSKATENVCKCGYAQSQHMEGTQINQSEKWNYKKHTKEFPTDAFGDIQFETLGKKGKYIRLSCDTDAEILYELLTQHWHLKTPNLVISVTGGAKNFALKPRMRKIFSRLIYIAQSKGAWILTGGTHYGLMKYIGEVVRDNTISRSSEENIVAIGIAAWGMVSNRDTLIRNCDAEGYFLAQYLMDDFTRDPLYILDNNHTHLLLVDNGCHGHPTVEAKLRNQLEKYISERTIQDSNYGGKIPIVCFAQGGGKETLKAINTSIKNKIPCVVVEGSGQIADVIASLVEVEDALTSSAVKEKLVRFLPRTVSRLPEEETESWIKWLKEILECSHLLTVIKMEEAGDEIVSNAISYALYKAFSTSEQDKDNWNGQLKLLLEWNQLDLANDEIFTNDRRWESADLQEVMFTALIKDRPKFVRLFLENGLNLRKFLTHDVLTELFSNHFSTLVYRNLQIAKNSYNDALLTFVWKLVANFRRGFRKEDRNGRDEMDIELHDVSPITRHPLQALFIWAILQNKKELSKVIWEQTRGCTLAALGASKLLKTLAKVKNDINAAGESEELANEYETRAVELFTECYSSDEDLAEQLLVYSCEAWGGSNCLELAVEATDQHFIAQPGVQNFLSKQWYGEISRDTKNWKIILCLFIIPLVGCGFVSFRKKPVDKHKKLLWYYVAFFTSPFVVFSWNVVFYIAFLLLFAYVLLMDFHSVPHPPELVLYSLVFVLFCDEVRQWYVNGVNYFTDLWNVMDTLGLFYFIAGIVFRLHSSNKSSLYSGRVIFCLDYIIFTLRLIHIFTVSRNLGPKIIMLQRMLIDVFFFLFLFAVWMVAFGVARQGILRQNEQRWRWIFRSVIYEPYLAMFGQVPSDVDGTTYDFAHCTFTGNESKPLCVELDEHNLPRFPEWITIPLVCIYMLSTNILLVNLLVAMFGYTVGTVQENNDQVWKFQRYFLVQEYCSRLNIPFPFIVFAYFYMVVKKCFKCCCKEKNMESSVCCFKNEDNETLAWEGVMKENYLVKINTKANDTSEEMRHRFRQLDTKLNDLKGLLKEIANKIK

What is called IC50 is the midpoint of a concentration-inhibition curve. A lower IC50 goes with greater potency in that assay. On to `COc1ccc(N(Cc2ccccc2)S(=O)(=O)c2cc(C(=O)O)ccc2Cl)cc1` [Example 124, 3-(N-Benzyl-N-(4-methoxyphenyl)sulfamoyl)-4-chlorobenzoic acid], for which the IC50 is 1000 to 10000 nM. As for `CCOc1ccccc1N(Cc1ccc(Cl)cc1)S(=O)(=O)c1cccc(C(=O)O)c1` [Example 125, 3-(N-(4-Chlorobenzyl)-N-(2-ethoxyphenyl)sulfamoyl) benzoic acid], the figure is 1000 to 10000 nM. For the compound `O=C(O)c1ccc(Cl)c(S(=O)(=O)N(Cc2ccccc2)c2ccccc2)c1` [Example 126, 3-(N-Benzyl-N-phenylsulfamoyl)-4-chlorobenzoic acid], the IC50 lay within 10000 to 30000 nM. As for `Cc1cc(C)c(S(=O)(=O)N(Cc2ccccc2)c2ccccn2)c(C)c1` [Example 127, N-Benzyl-2,4,6-trimethyl-N-(pyridin-2-yl)benzene-sulfonamide], the figure is 1000 to 10000 nM; as for `O=S(=O)(c1cccc2cccnc12)N(Cc1ccccc1)c1ccccn1` [Example 128, N-Benzyl-N-(pyridin-2-yl) quinoline-8-sulfonamide], 1000 to 10000 nM. `O=S(=O)(c1ccc(Cl)cc1)N(Cc1ccccc1)c1ccccn1` [Example 129, N-Benzyl-4-chloro-N-(pyridin-2-yl)benzene-sulfonamide] gave an IC50 of 1000 to 10000 nM. In turn, `O=[N+]([O-])c1ccc(S(=O)(=O)N(Cc2ccccc2)c2ccccn2)cc1` [Example 130, N-Benzyl-4-nitro-N-(pyridin-2-yl)benzene-sulfonamide] yielded an IC50 of 1000 to 10000 nM.

Compound `O=S(=O)(c1ccccc1)N(Cc1ccccc1)c1ccccn1` [Example 131, N-Benzyl-N-(pyridin-2-yl)benzenesulfonamide] showed an IC50 of 1000 to 10000 nM.

With `COc1ccc(S(=O)(=O)N(Cc2ccccc2)c2ccccn2)cc1` [Example 132, N-Benzyl-4-methoxy-N-(pyridin-2-yl)benzene-sulfonamide], the IC50 lay in the range of 1000 to 10000 nM. As to `Cc1ccc(S(=O)(=O)N(Cc2ccccc2)c2ccccn2)cc1[N+](=O)[O-]` [Example 133, N-Benzyl-4-methyl-3-nitro-N-(pyridin-2-yl) benzenesulfonamide], the IC50 lay in the range of 1000 to 10000 nM. In turn, `COc1ccc(N(C(C)c2ccc(C)cc2)S(=O)(=O)c2cc(Cl)ccc2F)cc1` (stereo not shown) [Example 134, 5-Chloro-2-fluoro-N-(4-methoxyphenyl)-N-(1-p-tolylethyl)benezene-sulfonamide] returned an IC50 of 1000 to 10000 nM.

`COc1ccc(OC)c(C(C)N(c2ccc(F)cc2)S(=O)(=O)c2ccc(F)cc2C)c1` (stereo not shown) [Example 135, N-(1-(2,5-Dimethoxyphenyl)ethyl)-4-fluoro-N-(4-fluoro-phenyl)-2-methylbenzene-sulfonamide] showed an IC50 of 1000 to 10000 nM. With `COc1ccc(OC)c(C(C)N(c2cccc(F)c2)S(=O)(=O)c2cc(F)ccc2C)c1` (stereo not shown) [Example 136, N-(1-(2,5-Dimethoxyphenyl)ethyl)-5-fluoro-N-(3-fluorophenyl)-2-methyl-benzenesulfonamide] the figure was 1000 to 10000 nM; with `COc1ccc(C(C)N(c2ccc(OC)cc2)S(=O)(=O)c2ccc(C)c(Cl)c2)cc1` (stereo not shown) [Example 137, 3-Chloro-N-(4-methoxyphenyl)-N-(1-(4-methoxy-phenyl)ethyl)-4-methyl benzenesulfonamide], 10000 to 30000 nM; with `COc1cccc(C(C)N(c2ccccc2)S(=O)(=O)c2cccc(F)c2)c1` (stereo not shown) [Example 138, 3-Fluoro-N-(1-(3-methoxy-phenyl)ethyl)-N-phenyl-benzenesulfonamide], 1000 to 10000 nM. `COc1cccc(C(C)N(c2cccc(Cl)c2)S(=O)(=O)c2ccc(F)cc2C)c1` (stereo not shown) [Example 139, N-(3-Chlorophenyl)-4-fluoro-N-(1-(3-methoxy-phenyl)ethyl)-2-methyl-benzenesulfonamide] had an IC50 of 1000 to 10000 nM. With `C[Si](C)(C)c1ccc(CN(c2ncc(C(F)(F)F)cc2Cl)S(=O)(=O)c2ccc(C(=O)O)cc2)cc1` [Example 140, 4-(N-(3-Chloro-5-(trifluoromethyl)pyridin-2-yl)-N-(4-(trimethylsilyl)benzyl)sulfamoyl)benzoic acid] the figure was below 1000 nM; with `O=C(O)c1ccc(S(=O)(=O)N(CC2CCN(c3ccccn3)CC2)c2ncc(C(F)(F)F)cc2Cl)cc1` [Example 142, 4-(N-(3-Chloro-5-(trifluoromethyl)pyridin-2-yl)-N-((1-(pyridin-2-yl)piperidin-4-yl)methyl)sulfamoyl)benzoic acid], below 1000 nM; with `Cc1cc(S(=O)(=O)N(Cc2ccccc2)c2ncc(C(F)(F)F)cc2Cl)ccc1C(=O)O` [Example 143, 4-(N-Benzyl-N-(3-chloro-5-(trifluoromethyl)pyridin-2-yl)sulfamoyl)-2-methylbenzoic acid], below 1000 nM. `O=S(=O)(c1ccc(O)nc1)N(Cc1ccccc1)c1ncc(C(F)(F)F)cc1Cl` [Example 144, N-Benzyl-N-(3-chloro-5-(trifluoromethyl)pyridin-2-yl)-6-hydroxypyridine-3-sulfonamide] came in with an IC50 below 1000 nM. With `Cc1cc(C(=O)O)ccc1S(=O)(=O)N(Cc1ccccc1)c1ncc(C(F)(F)F)cc1Cl` [Example 145, 4-(N-Benzyl-N-(3-chloro-5-(trifluoromethyl)pyridin-2-yl)sulfamoyl)-3-methylbenzoic acid] the figure was below 1000 nM; with `COc1cc(C(=O)O)ccc1S(=O)(=O)N(Cc1ccccc1)c1ncc(C(F)(F)F)cc1Cl` [Example 146, 4-(N-Benzyl-N-(3-chloro-5-(trifluoromethyl)pyridin-2-yl)sulfamoyl)-3-methoxybenzoic acid], below 1000 nM. With `O=C(O)Cc1ccc(S(=O)(=O)N(Cc2ccccc2)c2ncc(C(F)(F)F)cc2Cl)cc1` [Example 147, 2-(4-(N-Benzyl-N-(3-chloro-5-(trifluoromethyl)pyridin-2-yl)sulfamoyl)phenyl)acetic acid] the figure was below 1000 nM. As for `O=C(O)c1ccc(S(=O)(=O)N(CCc2ccccc2)c2ncc(C(F)(F)F)cc2Cl)cc1` [Example 148, 4-(N-(3-Chloro-5-(trifluoromethyl)pyridin-2-yl)-N-phenethylsulfamoyl)benzoic acid], the figure is below 1000 nM; as for `O=C(O)c1ccc(S(=O)(=O)N(Cc2ccccc2)c2ncc(C(F)(F)F)cc2C2CC2)cc1` [Example 149, 4-(N-Benzyl-N-(3-cyclopropyl-5-(trifluoromethyl)pyridin-2-yl)sulfamoyl)benzoic acid], below 1000 nM. Consider `O=C(O)c1ccc(S(=O)(=O)N(Cc2ccc(C3CC3)cc2)c2ncc(C(F)(F)F)cc2Cl)cc1` [Example 150, 4-(N-(3-Chloro-5-(trifluoromethyl)pyridin-2-yl)-N-(4-cyclopropylbenzyl)sulfamoyl)benzoic acid], for which the IC50 is below 1000 nM. `O=C(O)c1ccc(S(=O)(=O)N(Cc2ccccc2)c2ncc(C(F)(F)F)cc2Br)cc1` [Example 151, 4-(N-Benzyl-N-(3-bromo-5-(trifluoromethyl)pyridin-2-yl)sulfamoyl)benzoic acid] registered a half-inhibitory concentration (IC50) below 1000 nM. With `Cn1cc(-c2ccc(CN(c3ncc(C(F)(F)F)cc3Cl)S(=O)(=O)c3ccc(C(=O)O)cc3)cc2)cn1` [Example 152, 4-(N-(3-Chloro-5-(trifluoromethyl)pyridin-2-yl)-N-(4-(1-methyl-1H-pyrazol-4-yl)benzyl)sulfamoyl)benzoic acid] the figure was below 1000 nM. Compound `Cc1cc(C(F)(F)F)cnc1N(Cc1ccccc1)S(=O)(=O)c1ccc(C(=O)O)cc1` [Example 153, 4-(N-Benzyl-N-(3-methyl-5-(trifluoromethyl)pyridin-2-yl)sulfamoyl)benzoic acid] gave an IC50 below 1000 nM. As for `O=C(O)c1ccc(S(=O)(=O)N(Cc2ccc(-c3cccnc3)cc2)c2ncc(C(F)(F)F)cc2Cl)cc1` [Example 154, 4-(N-(3-Chloro-5-(trifluoromethyl)pyridin-2-yl)-N-(4-(pyridin-3-yl)benzyl)sulfamoyl)benzoic acid], the figure is below 1000 nM; as for `O=C(O)c1ccc(S(=O)(=O)N(Cc2ccc(-c3cccs3)cc2)c2ncc(C(F)(F)F)cc2Cl)cc1` [Example 155, 4-(N-(3-Chloro-5-(trifluoromethyl)pyridin-2-yl)-N-(4-(thiophen-2-yl)benzyl)sulfamoyl)benzoic acid], below 1000 nM; as for `O=C(O)c1ccc(S(=O)(=O)N(Cc2ccc(-c3ccncc3)cc2)c2ncc(C(F)(F)F)cc2Cl)cc1` [Example 156], below 1000 nM. For `O=C(O)c1ccc(S(=O)(=O)N(Cc2ccc(-c3ccco3)cc2)c2ncc(C(F)(F)F)cc2Cl)cc1` [Example 157, 4-(N-(3-Chloro-5-(trifluoromethyl)pyridin-2-yl)-N-(4-(furan-2-yl)-benzyl)sulfamoyl)benzoic acid], the IC50 was below 1000 nM. With `O=C(O)c1ccc(S(=O)(=O)N(Cc2ccc(-c3ccccc3)cc2)c2ncc(C(F)(F)F)cc2Cl)cc1` [Example 158, 4-(N-([1,1′-Biphenyl]-4-ylmethyl)-N-(3-chloro-5-(trifluoromethyl)pyridin-2-yl)sulfamoyl)benzoic acid] the figure was below 1000 nM; with `O=C(O)c1ccc(S(=O)(=O)N(Cc2ccc(-c3cnco3)cc2)c2ncc(C(F)(F)F)cc2Cl)cc1` [Example 159, 4-(N-(3-Chloro-5-(trifluoromethyl)pyridin-2-yl)-N-(4-(oxazol-5-yl)benzyl)sulfamoyl)benzoic acid], below 1000 nM. Compound `O=C(O)c1ccc(S(=O)(=O)N(Cc2ccc(C(F)(F)F)nc2)c2ncc(C(F)(F)F)cc2Cl)cc1` [Example 160, 4-(N-(3-Chloro-5-(trifluoromethyl)pyridin-2-yl)-N-((6-(trifluoromethyl)pyridin-3-yl)methyl)sulfamoyl)benzoic acid] had an IC50 below 1000 nM.

Compound `O=C(O)c1ccc(S(=O)(=O)N(Cc2ccc(NC(=O)c3ccccn3)cc2)c2ncc(C(F)(F)F)cc2Cl)cc1` [Example 161, 4-(N-(3-Chloro-5-(trifluoromethyl)pyridin-2-yl)-N-(4-(picolinamido)benzyl)sulfamoyl)benzoic acid] had an IC50 below 1000 nM.
